Data from US20240208957A1, “TRIAZINE DERIVATIVE AS REVERSIBLE AND IRREVERSIBLE COVALENT INHIBITORS OF PI3K” (UNIVERSITÄT BASEL, priority 2021, published 2024).
Where two headings read alike, the source gives them in different places.

Assays:
[1] = Intrinsic reactivity of the inhibitors with βME measured with HPLC; assay type: physicochemical; settings: 1 mM inhibitor + 600 mM βME, n = 3, mean
Description: E˜I→EI • ii) off-target reactions with ubiquitous sulfhydryls (S) and other nucleophils present in physiologic environments such as cells and body fluids are driven by the intrinsic reactivity of the warhead that is defined by Kchem driving the conversion of S and I to form the sulfhydryl-adduct (SI) [table]

[2] = system: pSer473 of PKB/Akt in SKOV3 cells; test: In-Cell Western cellular PI3K signaling, pSer473 of PKB/Akt in SKOV3 cells; assay type: cell-based; settings: Homo sapiens
Method: Protein phosphorylation was detected as follows: pSer473 of PKB/Akt with rabbit polyclonal antibody from Cell Signaling Technology (CST) (#4058) by In-Cell Western assays, where 1.2×10^4 SKOV3 cells/well in 96-well plates were plated (Cell Carrier, PerkinElmer) for 24 hours (37° C., 5% CO2), as described in Ref.^21.

[3] = background statement; cited from earlier work
[4] = background statement; cited from earlier work; remark: listed apart in the source
p110α (PI3Kα) = p110α (PI3Kα) (Homo sapiens, UniProt P42336); test: LanthaScreen determination of kinetic constants (kinact, Ki) for p110α; assay type: binding; settings: for Ki: dissociation constant of the first reversible binding, mean of 3; for kinact: read-out: kinact PI3Kα;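 on all read-outs here: covalent inhibition constants for p110α come from LanthaScreen data, fitted globally by numerical integration in KinTek Global Kinetic Explorer software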
Method: Apparent dissociation constants of compounds [Ki(app)] for p110α were determined by LanthaScreen Technology (Life Technologies), as described in Ref.^21.
Maximum potential rate of covalent bond formation (Kinact) and dissociation constant of the first reversible binding (Ki) of compounds for p110α were determined by LanthaScreen Technology (Life Technologies). The calculation of kinetic parameters was carried out through global fitting for numerical integration by using KinTek Global Kinetic Explorer modelling software^22-27.

[5] = SK-OV-3, SKOV3 cells, mean of 2 or 3 independent measurements, read-out: IC50 pPKB (S473) SKOV3
[6] = mean of 3 independent measurements, global fitting with KinTek

Chain of p110α (PI3Kα) (P42336 whole entry): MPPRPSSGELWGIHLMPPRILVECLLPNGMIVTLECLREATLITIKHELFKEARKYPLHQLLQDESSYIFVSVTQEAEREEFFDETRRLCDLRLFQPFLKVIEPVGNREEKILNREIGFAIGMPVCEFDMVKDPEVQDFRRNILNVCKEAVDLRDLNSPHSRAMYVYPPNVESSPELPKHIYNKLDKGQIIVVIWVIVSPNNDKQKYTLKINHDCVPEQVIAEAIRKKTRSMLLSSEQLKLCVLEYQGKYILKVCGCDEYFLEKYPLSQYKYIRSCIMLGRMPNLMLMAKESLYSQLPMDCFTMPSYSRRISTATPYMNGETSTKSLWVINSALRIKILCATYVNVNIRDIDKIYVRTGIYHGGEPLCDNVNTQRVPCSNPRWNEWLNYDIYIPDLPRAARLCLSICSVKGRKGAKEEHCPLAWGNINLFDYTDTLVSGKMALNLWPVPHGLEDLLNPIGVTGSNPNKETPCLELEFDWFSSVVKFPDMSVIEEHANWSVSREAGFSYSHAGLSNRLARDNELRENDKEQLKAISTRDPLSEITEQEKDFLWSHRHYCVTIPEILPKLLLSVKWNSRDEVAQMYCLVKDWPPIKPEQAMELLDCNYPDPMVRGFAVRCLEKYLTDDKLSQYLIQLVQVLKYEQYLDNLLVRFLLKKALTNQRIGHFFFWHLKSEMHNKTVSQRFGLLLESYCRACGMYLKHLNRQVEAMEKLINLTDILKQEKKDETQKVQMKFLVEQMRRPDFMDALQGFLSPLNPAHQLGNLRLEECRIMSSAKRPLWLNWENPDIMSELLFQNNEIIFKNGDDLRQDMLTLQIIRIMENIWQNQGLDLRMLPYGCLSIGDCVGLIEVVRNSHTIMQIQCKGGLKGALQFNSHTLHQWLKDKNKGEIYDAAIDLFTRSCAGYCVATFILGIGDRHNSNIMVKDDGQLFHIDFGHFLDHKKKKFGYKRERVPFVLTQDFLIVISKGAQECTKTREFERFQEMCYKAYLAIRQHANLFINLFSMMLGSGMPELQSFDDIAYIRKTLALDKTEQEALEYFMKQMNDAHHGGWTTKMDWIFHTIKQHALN
Chain of p110α (PI3Kα) (P27986 whole entry partner): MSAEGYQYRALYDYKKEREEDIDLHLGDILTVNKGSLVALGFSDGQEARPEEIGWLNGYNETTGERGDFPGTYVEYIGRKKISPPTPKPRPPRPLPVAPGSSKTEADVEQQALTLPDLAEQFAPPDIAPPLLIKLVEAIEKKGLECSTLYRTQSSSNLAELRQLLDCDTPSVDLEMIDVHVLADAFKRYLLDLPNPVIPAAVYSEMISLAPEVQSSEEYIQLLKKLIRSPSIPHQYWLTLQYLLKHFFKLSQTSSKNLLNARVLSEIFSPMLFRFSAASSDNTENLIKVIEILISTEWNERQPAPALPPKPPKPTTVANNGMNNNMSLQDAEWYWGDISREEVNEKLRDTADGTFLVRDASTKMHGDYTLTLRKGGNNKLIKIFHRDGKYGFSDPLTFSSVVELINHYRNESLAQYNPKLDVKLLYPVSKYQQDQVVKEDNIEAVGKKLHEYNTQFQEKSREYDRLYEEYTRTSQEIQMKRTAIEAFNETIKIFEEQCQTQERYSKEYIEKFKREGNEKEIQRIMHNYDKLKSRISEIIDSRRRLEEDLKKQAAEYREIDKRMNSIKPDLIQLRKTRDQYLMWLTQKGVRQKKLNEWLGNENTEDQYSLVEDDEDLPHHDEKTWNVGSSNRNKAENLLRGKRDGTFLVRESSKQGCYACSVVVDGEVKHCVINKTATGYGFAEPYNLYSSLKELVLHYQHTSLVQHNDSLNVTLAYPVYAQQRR

For `CC(C)=CC(=O)CCC(=O)N1CCN(Cc2cc3nc(-c4cccc5[nH]ncc45)nc(N4CCOCC4)c3s2)CC1` [CNX-1351, 1-[4-[[2-(1H-indazol-4-yl)-4-(4-morpholinyl)thieno[3,2-d]pyrimidin-6-yl]methyl]-1-piperazinyl]-6-methyl-5-heptene-1,4-dione, reference compound], the kchem [1] is listed as 0.000222 M⁻¹ s⁻¹, the IC50 [2, 5] is listed as 164 nM and the aqueous solubility [3] is listed as “low”. For the same molecule, the metabolic stability [4] was “metabolic instability”.
With `C=CC(=O)N1CC[C@H](C(=O)NCC(=O)N2CCN(c3nc(-c4cnc(N)nc4C(F)F)nc(N4CCOCC4)n3)CC2)C1` [Compound 24, (S)-1-acryloyl-N-(2-(4-(4-(2-amino-4-(difluoromethyl)pyrimidin-5-yl)-6-morpholino-1,3,5-triazin-2-yl)piperazin-1-yl)-2-oxoethyl)pyrrolidine-3-carboxamide] the kchem [1] was 0.00059 M⁻¹ s⁻¹, the kinact/KI (p110α (PI3Kα); PI3Kα, read-out: kinact/Ki) was 311000 M⁻¹ s⁻¹ and the Ki (p110α (PI3Kα)) was 8.34 nM. It also gave a kinact (p110α (PI3Kα); [6]) of 0.0026 s⁻¹ and an IC50 [2, 5] of 94 nM.
`C=CC(=O)N1CCC[C@@H]1C(=O)NCC(=O)N1CCN(c2nc(-c3cnc(N)nc3C(F)F)nc(N3CCOCC3)n2)CC1` [Compound 29, (R)-1-acryloyl-N-(2-(4-(4-(2-amino-4-(difluoromethyl)pyrimidin-5-yl)-6-morpholino-1,3,5-triazin-2-yl)piperazin-1-yl)-2-oxoethyl)pyrrolidine-2-carboxamide] gave a kchem [1] of 0.0079 M⁻¹ s⁻¹, a kinact/KI (p110α (PI3Kα); PI3Kα, read-out: kinact/Ki) of 40700 M⁻¹ s⁻¹ and a Ki (p110α (PI3Kα)) of 6.74 nM. For the same molecule, the kinact (p110α (PI3Kα); [6]) was 0.000275 s⁻¹ and the IC50 [2, 5] was 204 nM.
With `C=CC(=O)N1CCC[C@@H](C(=O)N(C)CC(=O)N2CCN(c3nc(-c4cnc(N)nc4C(F)F)nc(N4CCOCC4)n3)CC2)C1` [Compound 18, (R)-1-acryloyl-N-(2-(4-(4-(2-amino-4-(difluoromethyl)pyrimidin-5-yl)-6-morpholino-1,3,5-triazin-2-yl)piperazin-1-yl)-2-oxoethyl)-N-methylpiperidine-3-carboxamide] the kchem [1] was 0.000704 M⁻¹ s⁻¹, the kinact/KI (p110α (PI3Kα)) was 711000 M⁻¹ s⁻¹ and the Ki (p110α (PI3Kα)) was 6.08 nM. For the same molecule, the kinact (p110α (PI3Kα)) was 0.00433 s⁻¹ and the IC50 ([2]; SK-OV-3, read-out: IC50 pPKB (S473) SKOV3) was 15.3 nM.
`C=CC(=O)N1CCCC[C@@H]1C(=O)NCC(=O)N1CCN(c2nc(-c3cnc(N)nc3C(F)F)nc(N3CCOCC3)n2)CC1` [Compound 21, (R)-1-acryloyl-N-(2-(4-(4-(2-amino-4-(difluoromethyl)pyrimidin-5-yl)-6-morpholino-1,3,5-triazin-2-yl)piperazin-1-yl)-2-oxoethyl)piperidine-2-carboxamide] gave a kchem [1] of 0.00469 M⁻¹ s⁻¹, a kinact/KI (p110α (PI3Kα); PI3Kα, read-out: kinact/Ki) of 227000 M⁻¹ s⁻¹ and a Ki (p110α (PI3Kα)) of 3.85 nM. It also gave a kinact (p110α (PI3Kα); [6]) of 0.000875 s⁻¹ and an IC50 [2, 5] of 89.8 nM.
For `C=CC(=O)N1CCC[C@H](C(=O)N(C)CC(=O)N2CCN(c3nc(-c4cnc(N)nc4C(F)F)nc(N4CCOCC4)n3)CC2)C1` [Compound 17, (S)-1-acryloyl-N-(2-(4-(4-(2-amino-4-(difluoromethyl)pyrimidin-5-yl)-6-morpholino-1,3,5-triazin-2-yl)piperazin-1-yl)-2-oxoethyl)-N-methylpiperidine-3-carboxamide], the kchem [1] was 0.00068 M⁻¹ s⁻¹, the kinact/KI (p110α (PI3Kα); PI3Kα, read-out: kinact/Ki) was 32700 M⁻¹ s⁻¹ and the Ki (p110α (PI3Kα)) was 7.66 nM. It also gave a kinact (p110α (PI3Kα); [6]) of 0.000251 s⁻¹ and an IC50 [2, 5] of 85.7 nM.
Work on `C=CC(=O)N1CCC(COCC(=O)N2CCN(c3nc(-c4cnc(N)nc4C(F)F)nc(N4CCOCC4)n3)CC2)CC1` [Compound 46, 1-(4-((2-(4-(4-(2-amino-4-(difluoromethyl)pyrimidin-5-yl)-6-morpholino-1,3,5-triazin-2-yl)piperazin-1-yl)-2-oxoethoxy)methyl)piperidin-1-yl)prop-2-en-1-one] yielded a kchem [1] of 0.00029 M⁻¹ s⁻¹, a kinact/KI (p110α (PI3Kα); PI3Kα, read-out: kinact/Ki) of 239000 M⁻¹ s⁻¹ and a Ki (p110α (PI3Kα)) of 4.29 nM. The kinact (p110α (PI3Kα); [6]) was 0.00102 s⁻¹ and the IC50 [2, 5] was 23 nM.
